Experiments:
Conditions in all cases: 72 h
[1] = tested on: Caco-2; assay: relative viability EC50 (midpoint between 100% and the lowest measured viability); higher = less toxic
[2] = tested on: HepG2; assay: as above
[3] = tested on: U2OS; assay: as above
[4] = tested on: Calu-3; assay: as above
[5] = tested on: Vero E6; assay: as above
[6] = tested on: Caco-2; assay: drug sensitivity score (DSS) for viability; higher = more toxic; extreme values may be limits of the assay
[7] = tested on: HepG2; assay: as above
[8] = tested on: U2OS; assay: as above
[9] = tested on: Calu-3; assay: as above
[10] = tested on: Vero E6; assay: as above
[11] = tested on: Caco-2; assay: cell viability relative to DMSO; higher = less toxic
[12] = tested on: HepG2; assay: as above
[13] = tested on: U2OS; assay: as above
[14] = tested on: Calu-3; assay: as above
[15] = tested on: Vero E6; assay: as above

| Compound | relative viability EC50 [1] [µM] | relative viability EC50 [2] [µM] | relative viability EC50 [3] [µM] | relative viability EC50 [4] [µM] | relative viability EC50 [5] [µM] | drug sensitivity score [6] | drug sensitivity score [7] | drug sensitivity score [8] | drug sensitivity score [9] | drug sensitivity score [10] | cell viability ([11]; 1 nM) [%] | cell viability ([11]; 10 nM) [%] | cell viability ([11]; 100 nM) [%] | cell viability ([11]; 1000 nM) [%] | cell viability ([11]; 10000 nM) [%] | cell viability ([12]; 1 nM) [%] | cell viability ([12]; 10 nM) [%] | cell viability ([12]; 100 nM) [%] | cell viability ([12]; 1000 nM) [%] | cell viability ([12]; 10000 nM) [%] | cell viability ([13]; 1 nM) [%] | cell viability ([13]; 10 nM) [%] | cell viability ([13]; 100 nM) [%] | cell viability ([13]; 1000 nM) [%] | cell viability ([13]; 10000 nM) [%] | cell viability ([14]; 1 nM) [%] | cell viability ([14]; 10 nM) [%] | cell viability ([14]; 100 nM) [%] | cell viability ([14]; 1000 nM) [%] | cell viability ([14]; 10000 nM) [%] | cell viability ([15]; 1 nM) [%] | cell viability ([15]; 10 nM) [%] | cell viability ([15]; 100 nM) [%] | cell viability ([15]; 1000 nM) [%] | cell viability ([15]; 10000 nM) [%] |
| --- | --- | --- | --- | --- | --- | --- | --- | --- | --- | --- | --- | --- | --- | --- | --- | --- | --- | --- | --- | --- | --- | --- | --- | --- | --- | --- | --- | --- | --- | --- | --- | --- | --- | --- | --- |
| CN1CCC[C@@H]1CCSc1ccc(O)cc1 [SIB-1553A] | > 10 | > 10 | > 10 | > 10 | > 10 | 0 | 0 | 0 | 0 | 0 | 94.4 | 100 | 99.7 | 102 | 105 | 95 | 88.9 | 95.4 | 88.1 | 111 | 97.9 | 101 | 97.1 | 101 | 106 | 98.7 | 103 | 98.6 | 91.6 | 99.3 | 106 | 95.7 | 97.5 | 96 | 104 |
| CC[C@]1(O)C[C@H]2CN(CCc3c([nH]c4ccccc34)[C@@](C(=O)OC)(c3cc4c(cc3OC)N(C=O)[C@H]3[C@@](O)(C(=O)OC)[C@H](OC(C)=O)[C@]5(CC)C=CCN6CC[C@]43[C@@H]65)C2)C1 [Vincristine (sulfate)] | 0.0094 | 0.0102 | 0.0302 | 0.0248 | 0.196 | 23.3 | 24.3 | 24.7 | 19.1 | 14.4 | 91.9 | 66 | 42.5 | 41.4 | 34.8 | 109 | 68.4 | 39.2 | 35.4 | 36.9 | 97.1 | 80.8 | 35.4 | 19.5 | 17.6 | 88 | 78.2 | 54.8 | 39.6 | 34.6 | 98.9 | 102 | 82.9 | 34.2 | 29.8 |
| CCOc1ccc(-c2ccc(Cn3c(CC(C)(C)C(=O)O)c(SC(C)(C)C)c4cc(OCc5ccc(C)cn5)ccc43)cc2)cn1 | > 10 | > 10 | > 10 | > 10 | > 10 | 0 | 1 | 1 | 0 | 1.3 | 98.4 | 98.8 | 105 | 103 | 88.9 | 104 | 104 | 102 | 86.2 | 95.7 | 100 | 106 | 96.6 | 97.8 | 78.2 | 107 | 105 | 111 | 112 | 99.9 | 98.6 | 95.4 | 90.1 | 94 | 76.1 |
| CCCNC(C)C(=O)Nc1ccccc1C (stereo not given) [prilocaine] | > 10 | > 10 | > 10 | > 10 | > 10 | 0 | 0 | 0 | 0 | 0 | 95.1 | 100 | 99.1 | 102 | 97.3 | 113 | 91.9 | 102 | 96.2 | 98.8 | 100 | 108 | 99.3 | 105 | 96.9 | 89 | 102 | 95.5 | 94 | 101 | 101 | 98.9 | 92.2 | 99.8 | 96.9 |
| CCCCCCCCCCCCCCCC(=O)C(F)(F)F [PACOCF3] | > 10 | > 10 | > 10 | > 10 | > 10 | 0 | 0 | 0 | 0 | 0 | 101 | 98.6 | 104 | 92.3 | 96.8 | 99.6 | 108 | 102 | 104 | 105 | 107 | 103 | 106 | 97.2 | 102 | 99.6 | 93.5 | 91.2 | 83.2 | 102 | 101 | 101 | 96.6 | 102 | 101 |
| CC(C)c1ccccc1Cc1cc(C(=O)Nc2ccc(S(=O)(=O)c3ccccc3C(C)(C)C)cc2)c(O)c(O)c1O [TW-37] | 0.557 | 0.704 | 0.654 | 1.75 | 0.746 | 13.1 | 10.6 | 13 | 6.2 | 12 | 88.7 | 89.7 | 93.5 | 36.7 | 9.2 | 98.8 | 98.6 | 96.1 | 49.6 | 20.3 | 102 | 94.7 | 95.7 | 36.5 | 4.6 | 107 | 98.1 | 107 | 86 | 28.8 | 92.1 | 102 | 96.1 | 43.2 | 7.7 |
| C=C1/C(=C\C=C2/CCC[C@]3(C)[C@@H]([C@H](C)CCCC(C)C)CC[C@@H]23)C[C@@H](O)C[C@@H]1O [alfacalcidol] | > 10 | > 10 | > 10 | > 10 | > 10 | 1.5 | 0 | 0 | 0 | 0 | 98.2 | 98.1 | 92.5 | 85 | 85.9 | 91.4 | 105 | 98.4 | 108 | 102 | 94.1 | 93.7 | 99 | 89.1 | 91.5 | 90.9 | 94.3 | 99.6 | 87.5 | 101 | 90.2 | 98.3 | 92.2 | 97.1 | 101 |
